Source: patent US20070197610A1, “Benzisoxazoles” (Janssen Pharmaceutica N.V., priority 2004, published 2007)

Legend:
[1] = target: T1, D-amino acid oxidase (DAAO; EC 1.4.3.3) (Sus scrofa, UniProt P00371); experiment: In vitro inhibition of DAAO using the keto acid method; format: biochemical; settings: DAAO 20 μg/ml, D-Alanine 15 mM, 10 min at room temperature, pH 8.3, absorbance at 450 nm; read-out: keto acid method pIC50 (converted)
T1 construct: purchased Sigma
Protocol: (§1) D-amino acid oxidase (DAAO; EC 1.4.3.3) catalyzes the oxidation of D-stereo isomers of amino acids.
Two in vitro methods were developed to measure the catalytic activity of DAAO: • 1. The peroxide method: measures the amount of peroxide produced, using an auxiliary enzyme horse radish peroxidase • 2. […]
DAAO (20 μg/ml) is incubated for 10 min at room temperature with the substrate D-Alanine (15 mM) in 0.19 mM pyrophosphatebuffer pH 8.3 containing FAD (11 μg/ml), and bovine liver catalase (EC 1.11.1.6) (4.3 mg/ml) in a total volume of 50 μl. Compounds were added in a 0.5 μl volume to a final DMSO concentration of 1%. The reaction is stopped by adding 25 μl 1 mM […] dinitrophenylhydrazine in 1N HCl, After a second 10 min incubation at room temperature, 175 μl 0.6 N NaOH is added and the formed hydrazone is detected by measuring the absorbance at 450 nm. All products were purchased from Sigma.

[2] = target: T1, D-amino acid oxidase (DAAO; EC 1.4.3.3); experiment: In vitro inhibition of DAAO using the peroxide method; format: biochemical; settings: DAAO 2.6 μg/ml, D-Alanine 7.5 mM, 60 minutes at room temperature, absorbance at 492 nm; read-out: H2O2 method pIC50 (converted)
Protocol: as §1
Two in vitro methods were developed to measure the catalytic activity of DAAO: • 1. The peroxide method: measures the amount of peroxide produced, using an auxiliary enzyme horse radish peroxidase • 2. The keto acid method: measures the ax keto acid formed
The general reaction to determine the amount of peroxide produced by catalytic action of DAAO can be described as: [drawing 36]
DAAO (2.6 μg/ml) is incubated for 60 minutes at room temperature with the substrate D-Alanine (7.5 mM) in 0.019 M sodiumpyrophosphate buffer containing FAD(5.5 μg/ml), HRP (200 μg/ml), DHBS (1667 μg/ml) and 4-aminoantipyrine(500 μg/ml) in a total volume of 50 μl. Compounds were added in a 0.5 μl volume to a final DMSO concentration of 1%. The reaction was terminated by addition of 30 μl of 0.5M phosphate buffer pH 5.0. The quinone-imine dye was detected by measuring the absorbance at 492 nm. All products were purchased from Sigma.

T1 sequence (P00371 whole entry): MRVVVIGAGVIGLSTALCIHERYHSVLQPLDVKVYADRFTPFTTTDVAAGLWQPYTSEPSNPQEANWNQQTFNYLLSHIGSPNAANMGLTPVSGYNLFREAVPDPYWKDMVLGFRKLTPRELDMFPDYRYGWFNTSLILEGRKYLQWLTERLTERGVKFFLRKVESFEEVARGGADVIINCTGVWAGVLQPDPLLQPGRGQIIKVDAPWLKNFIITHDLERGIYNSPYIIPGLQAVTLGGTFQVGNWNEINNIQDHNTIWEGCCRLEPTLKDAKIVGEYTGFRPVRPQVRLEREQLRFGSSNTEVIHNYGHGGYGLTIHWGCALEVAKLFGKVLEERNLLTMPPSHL

Row | melting point | IC50 [1] | IC50 [2] | SMILES
1 | 208 °C | – | – | COc1ccc2c(O)noc2c1
2 | 121 °C | – | – | COc1ccc2c(=O)n(C(=O)NC(C)C)oc2c1 [Compound 1]
3 | 97 to 100 °C | – | – | O=C(/N=c1/c2ccccc2on1C(=O)c1ccccc1)c1ccccc1 [Compound 10]
4 | – | 1000 nM | 631 nM | Cc1onc(-c2c(Cl)cccc2Cl)c1C(=O)Oc1noc2ccc(Cl)cc12 [Compound 17]
5 | – | 126 nM | 31.6 nM | Cc1cc(C(=O)Oc2noc3cc(Cl)ccc23)no1 [Compound 18]
6 | 126 to 128 °C | 5010 nM | 3980 nM | Cc1ccc2onc(OC(=O)c3cc(C)on3)c2c1 [Compound 19]
7 | – | 1000 nM | 631 nM | Cc1onc(-c2c(Cl)cccc2Cl)c1NC(=O)n1oc2ccc(Cl)cc2c1=O [Compound 21]
8 | – | 794 nM | 631 nM | CNC(=O)n1oc2ccc(Cl)cc2c1=O [Compound 22]
9 | – | 1000 nM | 794 nM | CC(C)NC(=O)n1oc2ccc(Cl)cc2c1=O [Compound 23]
10 | – | 794 nM | 631 nM | CCCNC(=O)n1oc2ccc(Cl)cc2c1=O [Compound 25]
11 | – | 2000 nM | 3160 nM | Cc1ccc2on(C(=O)NC(C)(C)C)c(=O)c2c1 [Compound 26]
12 | – | 200 nM | 50.1 nM | CC(C)(C)NC(=O)n1oc2cc(Cl)ccc2c1=O [Compound 27]
13 | – | 2000 nM | 3980 nM | Cc1ccc2on(C(=O)NC(C)C)c(=O)c2c1 [Compound 28]
14 | – | 3980 nM | – | CC(C)NC(=O)n1oc2ccccc2c1=O [Compound 29]
